Measurements published in ChEMBL document CHEMBL3507680, “University of Dundee, Gates Library screen for HepG2 cell viability”.

Assay: Human HepG2 cell viability assay in 384 well format
Format: toxicity, cell-based
Set-up: dose 125 nL, time 70.5 hour; concentration not given beside the values
Conditions: HepG2 cells, read-out: Inhibition

Compound	cytotoxicity at 70.5 h
CN1CCN(c2ccccc2NC(=O)NCCc2ccc(O)cc2)CC1	-6.51%
CNC(=O)[C@@H](c1ccccc1)N1CCC[C@H]1C(=O)NC1CCCCC1	-2.47%
CC(C)n1nc2c(cc1=O)CN(c1nc3ccccc3s1)CC2	3.31%
Cc1cnn(CC2CCCCN2C(=O)Cc2cn3ccsc3n2)c1 (configuration not stated)	11.4%
CC1CCN(CC2CCN(C(=O)c3c[nH]c4ncccc34)CC2)CC1	-19.4%
CC(C)Cc1noc(CNc2cc3c(cc2Cl)OCCCO3)n1	1.94%
CCN(CC)CC(=O)N1CCCCC1c1nc(C)cs1 (configuration not stated)	-2.06%
COc1ccccc1CC1CCCN(CC(N)=O)C1 (configuration not stated)	-2.63%
O=C(c1ccoc1)N1CCC2(C1)CN(c1ncc(F)cn1)C2	-0.91%
O=S(=O)(NCC1(O)CCOc2ccccc21)c1ccc(Cl)s1 (configuration not stated)	-6.65%
NC(=O)COc1cccc(CN2CCCC2c2ccc[nH]2)c1 (configuration not stated)	-5.09%
COCCOc1ccc(C(=O)N[C@@H]2CNCCC[C@H]2O)cc1	-2.53%
Cc1noc(C)c1-c1nc(N(C)CCN(C)C)ncc1-c1cnccn1	-6.02%
Cc1nccc(C(=O)N2CCCN(Cc3nccn3C(C)C)CC2)n1	-4.19%
CC1=N[C@@]2(CC[C@@H]3CN(C(=O)NCC(C)C)C[C@@H]32)C(=O)N1CC(C)C	12.3%
COCC(=O)N1Cc2cnc(Cc3ccc(OC)cc3)nc2C1	1.24%
Cc1ccsc1[C@@H]1CCN(C(=O)CCCn2cncn2)C[C@H]1O	-7.81%
Cc1ccc(OCC2CCCN(C(=O)CCn3ccccc3=O)C2)cc1 (configuration not stated)	0.753%
CN1[C@H](Cn2cncn2)C[C@@H]2CN(Cc3cccc(C#N)c3)CC[C@@H]21	-6.46%
NC(=O)CN1CCCN(C(=O)Cc2cccc(C(F)(F)F)c2)CC1	4.42%
Cc1cc(CN[C@@H](C)C(N)=O)c(C)s1	-7.91%

Compound	cytotoxicity at 70.5 h
CN(C)C(=O)C1CCCN1c1ccnc2ccsc12 (configuration not stated)	-7.45%
O=C(N[C@@H]1CN(CCc2ccc(F)cc2)C[C@H]1O)c1cscn1	-6.14%
CCCN1CCC(N2CCOC(Cc3cccc(OC)c3)C2)CC1 (configuration not stated)	9.86%
CN(C)c1ncc(CN2CCCC(Nc3ccc4c(c3)OCCO4)C2)s1 (configuration not stated)	-12.3%
Fc1cnc(N2CCn3c(CN4CCCC4)nnc3C2)nc1	-9.62%
COc1ccc(C(=O)C2CCCN(c3cc(N)ncn3)C2)c(C)c1 (configuration not stated)	-10.4%
CC(=O)c1cccc(OCCCC(=O)N(C)Cc2cscn2)c1	7.32%
Cc1noc(C)c1CNCC1CCCN1c1cccnn1 (configuration not stated)	22.6%
CCCC(C)C(=O)NCc1cn2cc(Br)ccc2n1 (configuration not stated)	-7.73%
CC(C)CNC(=O)N1CCC2(CC1)OC(C(N)=O)Cn1ccnc12 (configuration not stated)	-4.1%
COc1cc(-c2nccn2C(C)CCn2cccn2)cc2c1OCO2 (configuration not stated)	1.97%
O=C(CNC1(c2ccc(Cl)cc2)CCOCC1)NC1CCCC1	1.78%
COc1ccc(N(C(=O)c2ccc(C)nc2)C(C)C)cc1F	15.8%
O=C1CC[C@@H]2[C@@H](CCN2C(=O)c2ccsc2)N1Cc1ccncc1	0.223%
Cn1c(C2CC2)nc2c1CCN(CCS(=O)(=O)c1ccccc1)C2	-14.4%
COC(=O)[C@H]1CN(C(C)=O)CCN1C(C)=O	-2.71%
Cn1cc(Br)c(C(=O)NCCCn2cc(Br)cn2)n1	6.5%
CS(=O)(=O)N1Cc2nccn2CC(Cn2ncccc2=O)C1 (configuration not stated)	3.97%
COCCNC(=O)[C@@H](C)[C@@H]1CCc2c(C)cc(OCC(=O)O)c(C)c2C1	-6%
CCOC(=O)c1n[nH]cc1CN1CCOC(Cc2ccc(F)cc2)C1 (configuration not stated)	-3.8%
O=C(c1ccc(-n2cccn2)nc1)N1CCC(c2ccn[nH]2)C1 (configuration not stated)	-8.23%

Compound	cytotoxicity at 70.5 h
Cc1nc2c(N3CCN(Cc4ccccc4)CC3)nc(N)nc2n1C	0.226%
CCN(Cc1c(C)nn(CC)c1C)S(=O)(=O)c1cnn(C)c1	-6%
O=C(c1nc2c(s1)CCCN2C(=O)C1CC1)N1CCCC1	-3.91%
Cc1cnc(NCC(C)(C)N2CCCCC2)nc1	-5.95%
COCCN1CCC2(CCCN(C(=O)c3cncn3C)C2)CC1	-3.6%
COc1nc2c(cc1C(=O)NCc1noc(-c3ccco3)n1)CCC2	-7.17%
CS(=O)(=O)c1snnc1C1CCN(Cc2ccc3nccnc3c2)CC1	-5.73%
Cc1ncsc1CN1Cc2cnn(C)c2C(COCC2CC2)C1 (configuration not stated)	-1.88%
Cc1noc(CN2CCN(CCS(C)(=O)=O)CC2)n1	-2.73%
CC(=O)N1CCN(C(=O)CNc2ccc3ncsc3c2)CC1	-5.1%
Cc1nc(CN2CCCC(c3nccs3)C2)cs1 (configuration not stated)	-0.693%
COCCNC(=O)c1cc(-c2ccc3c(c2)CCO3)n[nH]1	15.5%
Cc1csc(CNc2cccc(OCCN3CCCC3)c2)n1	19.9%
c1cnc(N2CC3(CCN(Cc4cccnc4)C3)C2)nc1	9.91%
CCOC(=O)CCNC(=O)N1CCCC(CNC(=O)c2ccco2)C1 (configuration not stated)	3.18%
CCc1cnc(N)nc1NC(C)c1ccc(C)c(C)c1 (configuration not stated)	-0.902%
COCC(=O)N1CCC(c2nc3ccc(-c4ccccc4)cn3n2)CC1	-7.3%
CC(c1cccs1)N(C)Cc1cnc(-c2ccccn2)nc1 (configuration not stated)	3.52%
O=C(NCc1cccnc1N1CCCCC1)c1ccc2c(c1)OCO2	-18.5%
CC(=O)Nc1ccc2c(c1)C1(CCOCC1)C(=O)N2c1ccsc1	-9.04%
COCCN(Cc1c(C)nn(C)c1C)C(=O)C1COc2ccccc2C1 (configuration not stated)	-1.84%

Compound	cytotoxicity at 70.5 h
CC(C)S(=O)(=O)CCN1CCN(C(C#N)c2ccccc2)CC1 (configuration not stated)	-7.44%
COc1ccccc1OCCN1CCC(N2CCNC2=O)CC1	19.7%
Cc1ccc2c(c1)c(C)cc(=O)n2CC(=O)O	-2.86%
CN(C)c1ncccc1C(=O)N1CCCC1Cn1cccn1 (configuration not stated)	-5.68%
Cc1c(Cl)cccc1NC(=O)c1nc[nH]n1	19.3%
CC(=O)N1CCc2ncc(CNC(=O)C3CCC3)n2CC1	-2.29%
Cn1nccc1C(=O)N1Cc2ccccc2OC2(CCOCC2)C1	1.33%
CCOc1c(F)cccc1C(=O)N(C)CCn1cccn1	7.19%
Cc1n[nH]c(C)c1S(=O)(=O)N(C)Cc1nn(C)c(Cl)c1Cl	22.3%
COC(=O)CS(=O)(=O)CCC(=O)N1CCCC1c1ccsc1 (configuration not stated)	-2.16%
Cc1nc(NCCC23CCCN2CCC3)cc(C2CCNCC2)n1	-7.1%
CNC(=O)c1cc2c(nc1NCC1CC1)CCN(c1ccncn1)CC2	-24.6%
CCc1c(C)nn(CCNC(=O)Cc2csc(C)n2)c1C	-6.58%
CCS(=O)(=O)c1ccc(N2CCC(NC(=O)c3ccccn3)CC2)cc1	29%
CNC(=O)[C@H]1C[C@@H]2CCN(Cc3ccncc3)C[C@H]2O1	-6.07%
Cc1cc(S(=O)(=O)NCC(O)c2sccc2C)ccc1F (configuration not stated)	-1.45%
Cc1ccc(OCCNc2cccc(C(=O)N3CCOCC3)c2)cc1	23.6%
O=C(c1ccco1)N1CCCC(c2cc(C(F)F)n3ncnc3n2)C1 (configuration not stated)	-14.3%
Cc1nc2n(n1)CC(NCC(=O)Nc1cc(C)on1)CC2 (configuration not stated)	-6.78%
